What was measured:
[1] = CodeBreaK 100 multiple-dose PK; assay type: in vivo, human; details: for AUC(0-t) / Cmax / Tmax / half-life: human, plasma, po
patients with NSCLC = assay: CodeBreaK 100; assay type: in vivo
rats = assay: 3-month rat toxicology study; assay type: in vivo
CYP3A4 = CYP3A4 (Homo sapiens, UniProt P08684); assay: Metabolism of sotorasib; assay type: in vitro ADME
[2] = Clinical pharmacology: elimination, food effect, covariate effects on exposure; details: human, in vivo
Beagle dogs = details: 3-month dog study; cited from earlier work
[3] = 204 patients with NSCLC, 960 mg daily

Chain of CYP3A4 (P08684 whole entry): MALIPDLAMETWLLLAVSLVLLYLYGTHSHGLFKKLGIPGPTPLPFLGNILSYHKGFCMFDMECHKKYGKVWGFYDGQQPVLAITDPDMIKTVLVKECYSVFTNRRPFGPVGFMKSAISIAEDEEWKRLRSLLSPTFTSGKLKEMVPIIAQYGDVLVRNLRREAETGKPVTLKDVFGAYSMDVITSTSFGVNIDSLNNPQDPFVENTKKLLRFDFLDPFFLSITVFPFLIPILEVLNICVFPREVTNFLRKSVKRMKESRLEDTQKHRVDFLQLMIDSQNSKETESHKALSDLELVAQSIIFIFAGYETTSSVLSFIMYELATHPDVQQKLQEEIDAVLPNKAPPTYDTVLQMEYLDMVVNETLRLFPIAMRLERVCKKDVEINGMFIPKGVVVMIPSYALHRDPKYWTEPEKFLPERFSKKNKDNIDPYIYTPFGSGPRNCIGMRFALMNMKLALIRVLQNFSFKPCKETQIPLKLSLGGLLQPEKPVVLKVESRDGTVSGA

Compound: C=CC(=O)N1CCN(c2nc(=O)n(-c3c(C)ccnc3C(C)C)c3nc(-c4c(O)cccc4F)c(F)cc23)[C@@H](C)C1 [sotorasib]
- Systemic exposures (AUC0–24h and Cmax) across dose levels ([1]; daily doses ranging from 180 mg to 960 mg): similar
- AUC(0-t) ([1]; 180 mg): 31700 ng·h/mL
- Cmax ([1]; 180 mg): 6440 ng/mL
- Tmax ([1]; 180 mg): 0.73 h
- half-life ([1]; 180 mg): 5.13 h
- AUC(0-t) ([1]; 360 mg): 38900 ng·h/mL
- Cmax ([1]; 360 mg): 6310 ng/mL
- half-life ([1]; 360 mg): 5.53 h
- AUC(0-t) ([1]; 720 mg): 42100 ng·h/mL
- Cmax ([1]; 720 mg): 5450 ng/mL
- Tmax ([1]; 720 mg): 1.1 h
- half-life ([1]; 720 mg): 4.75 h
- AUC(0-t) ([1]; 960 mg): 32400 ng·h/mL
- Cmax ([1]; 960 mg): 5390 ng/mL
- Tmax ([1]; 960 mg): 1.1 h
- half-life ([1]; 960 mg): 5.07 h
- Adverse event: abdominal pain (patients with NSCLC; [3]): 15%
- Adverse event: constipation (patients with NSCLC; [3]): 16%
- Adverse event: cough (patients with NSCLC; [3]): 20%
- Adverse event: decreased appetite (patients with NSCLC; [3]): 13%
- Adverse event: diarrhea (patients with NSCLC; [3]): 42%
- Adverse event: dyspnea (patients with NSCLC; [3]): 16%
- Adverse event: edema (patients with NSCLC; [3]): 15%
- Adverse event: musculoskeletal pain (patients with NSCLC; [3]): 35%
- Adverse event: pneumonia (patients with NSCLC; [3]): 12%
- Adverse event: rash (patients with NSCLC; [3]): 12%
- Adverse event: vomiting (patients with NSCLC; [3]): 17%
- Discontinuation due to hepatotoxicity (patients with NSCLC; [3]): 4.9%
- Permanent discontinuation due to an AE (patients with NSCLC; [3]): 9%
- Serious AE: diarrhea (patients with NSCLC; [3]): 2%
- Serious AE: hepatotoxicity (patients with NSCLC; [3]): 3.4%
- Serious AE: pneumonia (patients with NSCLC; [3]): 8%
- Serious AEs, patients (patients with NSCLC; [3]): 50%
- Adverse event: hepatotoxicity (patients with NSCLC; 204 patients with NSCLC, 960 mg daily, grouped term): 25%
- Resolution of hepatotoxicity after dose reduction or interruption (patients with NSCLC; cases with dose reduction or interruption): 91%
- Patients with hepatotoxicity requiring dose reduction or interruption (patients with NSCLC; of the 50 patients with an event of hepatotoxicity (n=23)): 46%
- Patients with hepatotoxicity treated with systemic corticosteroids (patients with NSCLC; of the 357 patients treated with 960 mg daily): 5%
- Most common adverse reactions (≥20%) (patients with NSCLC; patients with NSCLC in CodeBreaK 100): diarrhea, musculoskeletal pain, nausea, fatigue, hepatotoxicity, and cough
- Hepatotoxicity events that were severe (Grade 3 or 4) (patients with NSCLC; primary safety population): 12%
- Renal toxicity events (patients with NSCLC; primary safety population): rare, mild to moderate, and did not require dose reduction or discontinuation
- Interstitial lung disease/pneumonitis (patients with NSCLC; primary safety population, three patients, one fatal case): 1.5%
- Most notable toxicity (renal toxicity) findings (rats; 3-month rat study): renal tubular degeneration/necrosis and increased kidney weight with biomarkers of renal tubular injury
- Recovery of renal toxicity (rats; after two months): Partial recovery
- Main metabolising enzyme (CYP3A4): primarily metabolized by CYP3A4
- Food effect on administration [2]: may be taken with or without food
- Route of elimination [2]: mainly eliminated via the fecal route with minor renal excretion
- Renal toxicity (Beagle dogs): not identified
